In patent US10335409B2 (priority 2012, dated 2019):

What was measured:
[1] = tested on: genotype 1a (H77) stable HCV replicon in Huh-7-derived cells; experiment: Stable subgenomic HCV replicon EC50, genotype 1a (Renilla luciferase); format: cell-based, hepatitis C virus; details: Hepatitis C virus, stable replicon genotype 1a, 72 h, read-out: EC50 1A RLUC
Method in brief: (§1)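 Compounds, three-fold diluted, were applied to Huh-7-derived cells harbouring luciferase replicons (genotype 1a H77, 1b Con1, 2a JFH-1, 4a ED43, with strain-specific adaptive mutations). Seventy-two hours later, intracellular replication was gauged by Renilla luciferase activity and EC50 derived by regression.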

[2] = tested on: genotype 2a (JFH-1) stable HCV replicon in Huh-7-derived cells; experiment: Stable subgenomic HCV replicon EC50, genotype 2a (Renilla luciferase); format: cell-based, hepatitis C virus; details: Hepatitis C virus, stable replicon genotype 2a, 72 h, read-out: EC50 2A RLUC
Method in brief: as §1

[3] = target: HCV NS3 protease domain genotype 1b (Hepatitis C virus genotype 1b (isolate Con1), UniProt Q9WMX2, E1202G); experiment: Ki determination, NS3 protease genotype 1b (fluorogenic depsipeptide substrate); format: biochemical; details: 50 pM enzyme, NS4A peptide
Chain of HCV NS3 protease domain genotype 1b (Q9WMX2 1027-1208 E1202G): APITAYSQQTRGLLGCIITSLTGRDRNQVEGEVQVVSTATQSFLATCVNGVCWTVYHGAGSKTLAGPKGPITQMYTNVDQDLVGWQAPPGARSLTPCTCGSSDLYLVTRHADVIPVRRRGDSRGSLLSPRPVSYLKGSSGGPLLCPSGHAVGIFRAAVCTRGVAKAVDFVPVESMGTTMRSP
Protocol: Purified NS3 protease domain (amino acids 1-181) of the genotype 1b and 3a virus were generated as above.
Reactions were run at room temperature in buffer consisting of 50 mM HEPES, 40% glycerol, 0.05% Triton X-100, 10 mM DTT, and 10% DMSO. The final assay solutions contained 50 pM NS3 genotype 1 b protease or 200 pM genotype 3a protease, 20 μM NS4A peptide, and 4 μM substrate (genotype 1b) or 2 μM substrate (genotype 3a). Inhibitor concentrations varied from 100 nM to 5 pM in 3-fold dilutions, and no-inhibitor controls were included.
Compound dilutions were made in DMSO at 20× final concentration. Reaction mixtures were prepared in 96-well assay plates. A solution of enzyme and NS4A peptide in assay buffer (25 μL volume with both reagents at 4× final concentration) was mixed with 45 μL assay buffer and 5 μL of either inhibitor or DMSO, and pre-incubated at room temperature for 1 hour. The reaction was started by addition of 25 μL substrate solution at 4× final concentration. Plates were mixed vigorously for 5-10 seconds and reactions were allowed to proceed for 90 minutes, fluorescence was measured every 30 s between 90 and 120 minutes reaction time using a Tecan InfiniTe M1000 or PerkinElmer Envision multimode plate reader with an excitation wavelength of 340 nm and an emission wavelength of 490 nm.
To determine the Ki, rates were plotted as a function of inhibitor concentration, and the data were fit with equation 1 (Morrison, J. F., Biochimica et Biophysica Acta 1969, 185, 269-286) to calculate Ki^app using GraphPad Prism 5. […] Ki was calculated from Ki^app/(1+[[S]/Km]).

[4] = tested on: genotype 3a (S52) stable HCV replicon in Huh-7-derived cells; experiment: Stable subgenomic HCV replicon EC50, genotype 3a (Renilla luciferase); format: cell-based, hepatitis C virus; details: Hepatitis C virus, 72 h, read-out: EC50 3A RLUC
[5] = tested on: genotype 1a (H77) wild type transient HCV replicon in Huh-7-derived cells; experiment: Transient-transfected HCV replicon EC50, genotype 1a wild type; format: cell-based, hepatitis C virus; details: Hepatitis C virus, 72 h, transient-transfected replicon genotype 1a wild type, read-out: EC50 1A WT
[6] = tested on: genotype 1a NS3/4a protease inhibitor resistant variant R155K transient HCV replicon in Huh-7-derived cells; experiment: Transient-transfected HCV replicon EC50, genotype 1a R155K; format: cell-based, hepatitis C virus; details: Hepatitis C virus, 72 h, read-out: EC50 1A R155K, transient-transfected replicon genotype 1a R155K resistant variant, 72 h
[7] = tested on: genotype 1b NS3/4a protease inhibitor resistant variant D168A transient HCV replicon in Huh-7-derived cells; experiment: Transient-transfected HCV replicon EC50, genotype 1b D168A; format: cell-based, hepatitis C virus; details: Hepatitis C virus, 72 h, read-out: EC50 1B D168A, transient-transfected replicon genotype 1b D168A resistant variant, 72 h
[8] = tested on: genotype 1b (Con1) stable HCV replicon in Huh-7-derived cells; experiment: Stable subgenomic HCV replicon EC50, genotype 1b (Renilla luciferase); format: cell-based, hepatitis C virus; details: Hepatitis C virus, stable replicon genotype 1b, 72 h, read-out: EC50 1B RLUC
Method in brief: as §1

[9] = target: HCV NS3 protease domain genotype 3a (Hepatitis C virus genotype 3a, UniProt Q81258); experiment: Ki determination, NS3 protease genotype 3a (fluorogenic depsipeptide substrate); format: biochemical; details: 200 pM enzyme, NS4A peptide
Chain of HCV NS3 protease domain genotype 3a (Q81258 whole entry, looked up, the tested form may be a part): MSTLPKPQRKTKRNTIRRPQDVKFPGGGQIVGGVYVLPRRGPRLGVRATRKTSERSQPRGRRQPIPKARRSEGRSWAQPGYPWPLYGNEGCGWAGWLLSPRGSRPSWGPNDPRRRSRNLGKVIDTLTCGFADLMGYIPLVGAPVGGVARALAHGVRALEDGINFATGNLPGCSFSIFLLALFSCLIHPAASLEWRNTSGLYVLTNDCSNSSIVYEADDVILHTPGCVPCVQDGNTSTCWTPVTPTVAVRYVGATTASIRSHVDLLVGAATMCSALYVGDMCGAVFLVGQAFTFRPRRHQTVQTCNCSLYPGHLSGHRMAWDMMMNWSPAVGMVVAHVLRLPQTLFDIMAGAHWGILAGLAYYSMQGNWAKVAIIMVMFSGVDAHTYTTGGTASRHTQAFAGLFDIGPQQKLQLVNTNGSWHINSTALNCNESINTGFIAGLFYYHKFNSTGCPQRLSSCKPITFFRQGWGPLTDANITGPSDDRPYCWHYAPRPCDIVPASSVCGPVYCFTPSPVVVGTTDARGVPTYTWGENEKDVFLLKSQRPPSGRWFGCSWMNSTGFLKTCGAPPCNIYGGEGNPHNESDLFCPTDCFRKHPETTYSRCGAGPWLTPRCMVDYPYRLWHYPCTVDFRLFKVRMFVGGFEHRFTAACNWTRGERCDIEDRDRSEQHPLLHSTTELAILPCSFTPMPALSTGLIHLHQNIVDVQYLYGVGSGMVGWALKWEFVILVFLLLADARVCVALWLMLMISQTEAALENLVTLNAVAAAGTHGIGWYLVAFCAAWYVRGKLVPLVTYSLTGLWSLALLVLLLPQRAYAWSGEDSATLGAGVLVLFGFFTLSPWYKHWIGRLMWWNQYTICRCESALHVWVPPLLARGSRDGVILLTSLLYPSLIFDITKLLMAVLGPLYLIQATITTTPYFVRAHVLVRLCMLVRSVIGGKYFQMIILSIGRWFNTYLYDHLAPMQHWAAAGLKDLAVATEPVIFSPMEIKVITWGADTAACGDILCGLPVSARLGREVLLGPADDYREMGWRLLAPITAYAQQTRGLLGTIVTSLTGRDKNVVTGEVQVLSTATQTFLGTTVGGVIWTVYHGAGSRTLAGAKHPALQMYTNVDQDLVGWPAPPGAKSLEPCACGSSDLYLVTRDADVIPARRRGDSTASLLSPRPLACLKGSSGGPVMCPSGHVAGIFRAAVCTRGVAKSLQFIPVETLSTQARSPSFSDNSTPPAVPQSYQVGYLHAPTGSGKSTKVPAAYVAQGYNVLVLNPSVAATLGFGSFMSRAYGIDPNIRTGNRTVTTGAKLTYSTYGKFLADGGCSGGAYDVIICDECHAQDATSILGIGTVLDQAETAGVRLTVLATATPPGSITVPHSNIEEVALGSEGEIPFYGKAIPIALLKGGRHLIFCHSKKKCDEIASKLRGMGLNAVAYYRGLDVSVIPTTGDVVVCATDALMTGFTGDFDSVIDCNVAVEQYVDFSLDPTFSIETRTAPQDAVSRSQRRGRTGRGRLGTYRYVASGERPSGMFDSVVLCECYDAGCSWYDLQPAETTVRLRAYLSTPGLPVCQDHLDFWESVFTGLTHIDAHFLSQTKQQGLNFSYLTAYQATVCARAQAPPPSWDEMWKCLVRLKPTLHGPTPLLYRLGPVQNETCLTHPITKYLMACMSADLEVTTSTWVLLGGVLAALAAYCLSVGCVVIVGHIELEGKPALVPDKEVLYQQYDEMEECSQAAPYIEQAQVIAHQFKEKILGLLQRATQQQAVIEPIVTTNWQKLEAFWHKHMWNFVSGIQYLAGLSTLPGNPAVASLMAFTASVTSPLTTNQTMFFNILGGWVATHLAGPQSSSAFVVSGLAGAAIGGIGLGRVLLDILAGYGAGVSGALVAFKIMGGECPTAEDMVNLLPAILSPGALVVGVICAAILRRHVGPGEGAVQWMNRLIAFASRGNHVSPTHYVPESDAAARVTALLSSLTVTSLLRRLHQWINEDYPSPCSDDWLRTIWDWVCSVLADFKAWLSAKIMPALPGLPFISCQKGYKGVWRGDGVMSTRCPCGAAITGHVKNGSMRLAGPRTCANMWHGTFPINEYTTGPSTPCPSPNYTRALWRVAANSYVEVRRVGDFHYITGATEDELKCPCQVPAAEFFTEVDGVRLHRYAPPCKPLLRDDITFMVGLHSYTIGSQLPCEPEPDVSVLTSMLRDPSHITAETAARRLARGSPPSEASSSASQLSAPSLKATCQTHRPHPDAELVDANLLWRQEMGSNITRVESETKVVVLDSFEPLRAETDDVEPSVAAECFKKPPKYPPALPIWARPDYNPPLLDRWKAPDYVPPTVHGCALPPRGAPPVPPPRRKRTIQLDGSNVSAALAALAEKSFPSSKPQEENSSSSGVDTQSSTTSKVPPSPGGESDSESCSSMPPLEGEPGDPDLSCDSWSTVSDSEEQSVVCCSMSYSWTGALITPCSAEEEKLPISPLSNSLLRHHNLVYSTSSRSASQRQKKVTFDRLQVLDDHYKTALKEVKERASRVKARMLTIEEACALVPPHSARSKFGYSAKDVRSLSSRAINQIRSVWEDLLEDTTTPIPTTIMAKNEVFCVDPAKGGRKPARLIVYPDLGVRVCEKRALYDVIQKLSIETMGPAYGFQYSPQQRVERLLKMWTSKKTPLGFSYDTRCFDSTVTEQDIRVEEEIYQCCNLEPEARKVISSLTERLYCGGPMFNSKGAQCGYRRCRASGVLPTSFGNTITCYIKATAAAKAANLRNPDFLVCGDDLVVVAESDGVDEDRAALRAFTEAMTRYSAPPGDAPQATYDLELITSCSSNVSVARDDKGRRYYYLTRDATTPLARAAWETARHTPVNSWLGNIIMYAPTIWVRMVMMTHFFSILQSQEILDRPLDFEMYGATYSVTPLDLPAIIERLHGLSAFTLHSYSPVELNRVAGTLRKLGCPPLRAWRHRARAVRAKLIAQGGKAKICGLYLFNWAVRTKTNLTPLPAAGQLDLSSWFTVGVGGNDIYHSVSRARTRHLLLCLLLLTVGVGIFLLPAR
Method in brief: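 The NS3 protease domain (aa 1-181) with 20 μM NS4A peptide was used at 50 pM with 4 μM substrate (1b) or at 200 pM with 2 μM substrate (3a). Inhibitors (100 nM-5 pM) were pre-incubated 1 h at room temperature in HEPES/glycerol/DTT buffer with 10% DMSO. Steady-state rates (90-120 min) gave Ki via the Morrison equation, corrected for active enzyme and [S]/Km.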

[10] = tested on: genotype 3a (S52) wild type transient HCV replicon in Huh-7-derived cells; experiment: Transient-transfected HCV replicon EC50, genotype 3a wild type; format: cell-based, hepatitis C virus; details: Hepatitis C virus; transient-transfected replicon genotype 3a wild type, 72 h; read-out: EC50 3A WT
[11] = tested on: genotype 4a (ED43) stable HCV replicon in Huh-7-derived cells; experiment: Stable subgenomic HCV replicon EC50, genotype 4a (Renilla luciferase); format: cell-based, hepatitis C virus; details: Hepatitis C virus, 72 h, read-out: EC50 4A RLUC
Method in brief: as §1

[12] = tested on: genotype 1b (Con1) wild type transient HCV replicon in Huh-7-derived cells; experiment: Transient-transfected HCV replicon EC50, genotype 1b wild type; format: cell-based, hepatitis C virus; details: Hepatitis C virus, 72 h, transient-transfected replicon genotype 1b wild type, read-out: EC50 1B WT

SMILES | EC50 [1] | EC50 [2] | Ki [3] | EC50 [4] | EC50 [5] | EC50 [6] | EC50 [7] | EC50 [8] | Ki [9] | EC50 [10] | EC50 [11] | EC50 [12]
CC[C@@H]1[C@@H]2CN(C(=O)[C@H](C(C)(C)C)NC(=O)O[C@@H]3C[C@H]3CCCCC(F)(F)c3nc4ccc(OC(F)(F)F)cc4nc3O2)[C@@H]1C(=O)N[C@]1(C(=O)NS(=O)(=O)C2(C)CC2)C[C@H]1C(F)F [Example 83, (1aR,5S,8S,9S,10R,22aR)-5-tert-butyl-N-[(1R,2R)-2-(difluoromethyl)-1-{[(1-methylcyclopropyl)sulfonyl]carbamoyl}cyclopropyl]-9-ethyl-18,18-difluoro-3,6-dioxo-14-(trifluoromethoxy)-1,1a,3,4,5,6,9,10,18,19,20,21,22,22a-tetradecahydro-8H-7,10-methanocyclopropa[18,19][1,10,3,6]dioxadiazacyclononadecino[11,12-b]quinoxaline-8-carboxamide] | 62 nM | 19 nM | 0.09 nM | 1220 nM | 62 nM | 133 nM | 202 nM | 58 nM | 0.48 nM | 300 nM | 42 nM | 27 nM
CCC[C@@H]1[C@@H]2CN(C(=O)[C@H](C(C)(C)C)NC(=O)O[C@@H]3C[C@H]3CCCCC(F)(F)c3nc4ccc(OC)cc4nc3O2)[C@@H]1C(=O)N[C@]1(C(=O)NS(=O)(=O)C2CC2)C[C@H]1C(F)F [Example 60, (1aR,5S,8S,9S,10R,22aR)-5-tert-butyl-N-[(1R,2R)-1-[(cyclopropylsulfonyl)carbamoyl]-2-(difluoromethyl)cyclopropyl]-18,18-difluoro-14-methoxy-3,6-dioxo-9-propyl-1,1a,3,4,5,6,9,10,18,19,20,21,22,22a-tetradecahydro-8H-7,10-methanocyclopropa[18,19][1,10,3,6]dioxadiazacyclononadecino[11,12-b]quinoxaline-8-carboxamide] | 11 nM | 7.7 nM | 0.04 nM | 45 nM | 5.8 nM | 8.6 nM | 15 nM | 4.8 nM | 0.08 nM | 9.8 nM | 5.4 nM | 2.3 nM
COc1ccc2nc3c(nc2c1)O[C@H]1CN(C(=O)[C@H](C(C)(C)C)NC(=O)O[C@@H]2C[C@@H]4C[C@@H]4[C@H]2CCCCC3)[C@H](C(=O)NC2(C(=O)NS(=O)(=O)C3CC3)C[C@H]2C(F)F)[C@@H]1C (stereo in doubt) [Example 33, (1aS,2aR,6S,9S,10S,11R,23aR,23bS)-6-tert-butyl-N-[(1 S,2R)-1-[(cyclopropylsulfonyl)carbamoyl]-2-(difluoromethyl)cyclopropyl]-15-methoxy-10-methyl-4,7-dioxo-1a,2,2a,4,5,6,7,10,11,19,20,21,22,23,23a,23b-hexadecahydro-1H,9H-8,11-methanocyclopropa[4′,5′]cyclopenta[1′,2′:18,19][1,10,3,6]dioxadiazacyclononadecino[11,12-b]quinoxaline-9-carboxamide] | 7.6 nM | 4.9 nM | 0.03 nM | 16 nM | 2.6 nM | 2.5 nM | 4.2 nM | 2.8 nM | 0.06 nM | 5.3 nM | 2.3 nM | 1.6 nM
COc1ccc2nc3c(nc2c1)O[C@H]1CN(C(=O)[C@H](C(C)(C)C)NC(=O)O[C@@H]2C[C@@H]4C[C@@H]4[C@H]2CCCCC3(F)F)[C@H](C(=O)N[C@]2(C(=O)NS(=O)(=O)C3CC3)C[C@H]2C(F)F)[C@@H]1C [Example 62, (1aS,2aR,6S,9S,10S,11R,23aR,23bS)-6-tert-butyl-N-[(1R,2R)-1-[(cyclopropylsulfonyl)carbamoyl]-2-(difluoromethyl)cyclopropyl]-19,19-difluoro-15-methoxy-10-methyl-4,7-dioxo-1a,2,2a,4,5,6,7,10,11,19,20,21,22,23,23a,23b-hexadecahydro-1H,9H-8,11-methanocyclopropa[4′,5′]cyclopenta[1′,2′:18,19][1,10,3,6]dioxadiazacyclononadecino[11,12-b]quinoxaline-9-carboxamide] | 3.4 nM | 5 nM | 0.04 nM | 8.5 nM | 3.5 nM | 2.7 nM | 2 nM | 3 nM | 0.03 nM | 4 nM | 2.4 nM | 1.5 nM
CC[C@@H]1[C@@H]2CN(C(=O)[C@H](C(C)(C)C)NC(=O)O[C@@H]3C[C@@H]4C[C@@H]4[C@H]3CCCCCc3nc4ccc(OC)cc4nc3O2)[C@@H]1C(=O)N[C@]1(C(=O)NS(=O)(=O)C2CC2)C[C@H]1C(F)F [Example 70, (1aS,2aR,6S,9S,10S,11R,23aR,23bS)-6-tert-butyl-N-[(1R,2R)-1-[(cyclopropylsulfonyl)carbamoyl]-2-(difluoromethyl)cyclopropyl]-10-ethyl-15-methoxy-4,7-dioxo-1a,2,2a,4,5,6,7,10,11,19,20,21,22,23,23a,23b-hexadecahydro-1H,9H-8,11-methanocyclopropa[4′,5′]cyclopenta[1′,2′:18,19][1,10,3,6]dioxadiazacyclononadecino[11,12-b]quinoxaline-9-carboxamide] | 8.4 nM | 15 nM | 0.05 nM | 41 nM | 7.7 nM | 5.4 nM | 7.3 nM | 8.5 nM | 0.05 nM | 17 nM | 6.4 nM | 6.1 nM
C[C@@H]1[C@@H]2CN(C(=O)[C@H](C(C)(C)C)NC(=O)O[C@@H]3C[C@@H]4C[C@@H]4[C@H]3CCCCCc3nc4ccc(Cl)cc4nc3O2)[C@@H]1C(=O)N[C@]1(C(=O)NS(=O)(=O)C2CC2)C[C@H]1C(F)F [Example 79, (1aS,2aR,6S,9S,10S,11R,23aR,23bS)-6-tert-butyl-15-chloro-N-[(1R,2R)-1-[(cyclopropylsulfonyl)carbamoyl]-2-(difluoromethyl)cyclopropyl]-10-methyl-4,7-dioxo-1a,2,2a,4,5,6,7,10,11,19,20,21,22,23,23a,23b-hexadecahydro-1H,9H-8,11-methanocyclopropa[4′,5′]cyclopenta[1′,2′:18,19][1,10,3,6]dioxadiazacyclononadecino[11,12-b]quinoxaline-9-carboxamide] | 7 nM | 4.1 nM | 0.06 nM | 71 nM | 6.1 nM | 7.1 nM | 11 nM | 5.8 nM | 0.06 nM | 9.2 nM | 5.6 nM | 3 nM
